From US5994406A, “Geminal cationic surfactants of the type Nα Nω bis (Nα-acyl-arginin) α,ω diamino alkyl dichlorohydrates as antimicrobial agents” (Consejo Superior Investigaciones Cientificas, priority 1995, dated 1999)
Converted amounts (≈) assume the structure as drawn. Where two headings read alike, the source gives them in different places.

What was measured:
[1] = system: Streptococcus faecalis ATCC 10541; test: antimicrobial activity, MIC, organism 3; type: cell-based
Method: (§1) The main properties of the surface activity in aqueous solution at 25° C. which define the practical interest of a surfactant; surface stress to the critical micellar concentration (γ) and critical micellar concentration (CMC) have been determined according to conventional methods. Likewise, the antimicrobial activity has been evaluated based on the inhibiting minimum concentration values (MIC) expressed in μg/mL following the most common methodologies. Table 1 indicates the values of […], CMC and MIC for two dimers of the same homologeous series; C4 (KA)2 (X=8,n=4) and C4 (LA)2 (X=10, n=4). For the purpose of comparisons in this same table the same values are indicated for the monocatenary compounds KAM and LAM respectively.
3. Streptococcus faecalis ATCC 10541

[2] = system: Staphylococcus aereus ATCC 25178; test: antimicrobial activity, MIC, organism 5; type: cell-based
Method: as §1
5. Staphylococcus aereus ATCC 25178

[3] = system: Alcaligenes faecalis ATTCC 8750; test: antimicrobial activity, minimum inhibitory concentration (MIC), organism 1; type: cell-based
Method: as §1
1. Alcaligenes faecalis ATTCC 8750

[4] = system: Bordeltella bronchiseptica ATCC; test: antimicrobial activity, MIC, organism 2; type: cell-based
Method: as §1
2. Bordeltella bronchiseptica ATCC

[5] = system: Staphylococcus epidermidis ATCC 1551; test: antimicrobial activity, MIC, organism 6; type: cell-based
Method: as §1
6. Staphylococcus epidermidis ATCC 1551

[6] = system: Bacilus subtilis ATCC 6633; test: antimicrobial activity, MIC, organism 4; type: cell-based
Method: as §1
4. Bacilus subtilis ATCC 6633

[7] = system: Micrococcus luteus ATCC 9341; test: antimicrobial activity, MIC, organism 7; type: cell-based
Method: as §1
7. Micrococcus luteus ATCC 9341

[8] = critical micellar concentration (CMC), aqueous solution 25° C; type: physicochemical
Method: as §1

[9] = surface activity: surface tension at the critical micellar concentration, aqueous solution 25° C; type: physicochemical; parameters: unit not given here
Method: as §1

Row | MIC ([1]; Enterococcus faecalis, ATCC10541, read-out: MIC) [µg/mL] | MIC ([2]; ATCC25178, read-out: MIC) [µg/mL] | MIC ([3]; ATTCC8750, read-out: MIC) [µg/mL] | MIC ([4]; read-out: MIC) [µg/mL] | MIC ([5]; ATCC1551, read-out: MIC) [µg/mL] | MIC ([6]; read-out: MIC) [µg/mL] | MIC ([7]; ATCC9341, read-out: MIC) [µg/mL] | CMC [8] [mM] | surface stress (γ) at the critical micellar concentration [9] | MIC [1] [µg/mL] | MIC [2] [µg/mL] | MIC [3] [µg/mL] | MIC [4] [µg/mL] | MIC [5] [µg/mL] | MIC [6] [µg/mL] | MIC [7] [µg/mL] | Structure (SMILES)
1 | 16 (≈ 22.6 µM) | 8 (≈ 11.3 µM) | 64 (≈ 90.3 µM) | 32 (≈ 45.1 µM) | 8 (≈ 11.3 µM) | 8 (≈ 11.3 µM) | 8 (≈ 11.3 µM) | 7.8e-06 | 25 |  |  |  |  |  |  |  | CCCCCCCCCC(=O)N[C@@H](CCCNC(=N)N)C(=O)NCCCCNC(=O)[C@H](CCCNC(=N)N)NC(=O)CCCCCCCCC [C4 (KA)2, Nα, Nω, Bis (Nα -Decanoilarginin) α,ω-Diaminobuthylamide]
2 |  |  |  |  |  |  |  | 0.0037 | 30.0 | 32 (≈ 86.4 µM) | 64 (≈ 173 µM) | 64 (≈ 173 µM) | > 128 | 64 (≈ 173 µM) | > 128 | > 128 | CCCCCCCCCCCC(=O)N[C@@H](CCCN=C(N)N)C(=O)OC [LAM]
